Data on 3 molecules can be found in article PMC9468151, “Identification of a binding site on soluble RANKL that can be targeted to inhibit soluble RANK-RANKL interactions and treat osteoporosis” (Nature Communications, 2022).

Data set [1] deals with T1, sRANKL trimerization (Rattus norvegicus, UniProt Q9ESE2, D175N).
T1 construct: (1) sRANKL (rat 159-318 aa); His6-sumo (N, cleaved yes); made in house; host or cells: Escherichia coli BL21 (DE3)
The experiment in a line: Cross-link assay of sRANKL trimerization. The data set is classed as biochemical. The source says: the effect of S3-15 on RANKL self-trimerization. […]
control), S3 and S3-15 -treated sRANKL samples. The sRANKL dimer and monomer […]
trimerization process in vitro. […]
line 18 and, Figure S4L of the manuscript. […]
convinced that our sRANKL selective inhibitors does attenuate RANKL-RANK interaction without affect RANKL trimerization.”.
3. Does S3-15 affect the binding of sRANKL and mRANKL to OPG, an important
Response: To answer this question, we have performed a number of experiments. The pull-down assay was conducted to explore the effects of S3-15 on sRANKL and OPG […]
sRANKL to OPG at high concentration (10 and 1 μM) but not low concentration (0.3 μM). Three more experiments on mRANKLs have conducted to study if S3-15 affects the binding of mRANKL to OPG. Two of the experiments are on human and mouse mRANKL expressed in 293T cell, the other is on the mRANKL expressed in MC3T3-E1 osteogenic precursor cells. […]
affect the binding of mRANKL to OPG at concentration of 1 μM. […]
been documented in the page 11 at line 21 and Figure S4M-S4P of the manuscript.
Here is the paragraph we have added to the manuscript: […]

Data set [2] has as its target T2, sRANKL (Rattus norvegicus, UniProt Q9ESE2, D175N).
T2 construct: (1) sRANKL (rat 159-318 aa); His6-sumo (N, cleaved yes); made in house; host or cells: Escherichia coli BL21 (DE3)
T2 sequence (Q9ESE2 159-318 D175N): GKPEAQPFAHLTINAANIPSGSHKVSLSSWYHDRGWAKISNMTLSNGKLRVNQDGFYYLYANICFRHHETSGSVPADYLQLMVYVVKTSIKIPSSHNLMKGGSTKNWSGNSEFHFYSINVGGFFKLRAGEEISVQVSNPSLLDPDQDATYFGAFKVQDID
Kind of data set: Isothermal titration calorimetry (ITC) with sRANKL. The data set is classed as binding. To be noted: for Kd: 25 °C, PBS 0.8% DMSO. The protocol:
ITC titrations were performed on the MicroCal iTC200 system at 25 °C[55]. Working stocks of compound S3-15 were prepared in 100% DMSO at 50 mM and then diluted to 500 μM at PBS with final DMSO concentration at 0.8% (v/v). PBS with 0.8% DMSO was used as ITC buffer. Purified sRANKL or L-RANKL protein was buffer exchanged into same ITC buffer using a Millipore spin column. S3-15 at 500 μM was loaded into a syringe and protein was loaded into an isothermal calorimeter cell. During titration, S3-15 in the […] was injected (2 μL per injection, 25 injections in total, and 180 s between each injection) regularly from a rotating syringe into protein solution in the isothermal calorimeter cell. The sample cell was stirred at 385 rpm. Reference cell power was set to 5 μcal/s. Control experiments were conducted under the same conditions using buffer solution instead of S3-15. Data were analyzed using a one-site binding model in Origin 7.1 software for ITC version 7.0 (MicroCal). The dissociation constant, KD, was calculated according to equation KD = 1/K. All other parameters, K ([…]), N (varying the stoichiometry), ΔH (enthalpy of the reaction), and ΔG ([…] of the reaction) were determined from the titration data.

The test system of data set [3] is WT sRANKL induced osteoclast formation with H226A/W194A sRANKL. Kind of data set: Rescue experiment: WT sRANKL combined with W194A or H226A sRANKL. The data set is classed as cell-based, mouse. Further details: osteoclast formation (fig. S4b): unit not given here. To be noted: S3-15 10 μM; for OC numbers: 100 ng/mL WT sRANKL. The protocol: For the osteoclast formation induced by WT and Q238A sRANKL experiments, BMMs were seeded in 96-well plate in density of 6 × 10^3 cell/ well with α-MEM completed medium containing 10 ng/mL M-CSF for 24 h. Then the cells were treated with 0 μM, 0.3 μM, 3 μM and 10 μM and stimulated with 100 ng/mLWT sRANKL or Q238A sRANKL respectively. For the osteoclast formation induced by WT, W194A, and H226A sRANKL experiments, cells were stimulated with 100 ng/mL WT sRANKL combined W194A, H226A sRANKL in different concentrations (50 ng/mL, 200 ng/mL, and 400 ng/mL) with or without 10 μM S3-15. After 5 days, osteoclasts were formed, and applied TRAP-staining as described above. TRAP-positive multinucleated cells with > 3 nuclei were scored as osteoclasts.

The test system of data set [4] is OVX rats. The experiment in a line: Rat body weight and organ coefficients determination. The data set is classed as in vivo. The note with it: for body weight (fig. S7d): in g (unit assumed). The procedure:
We dissected all rats after 12 weeks of treatment, then took the main organs like heart, liver, spleen, lung, kidney, and thymus. All the organs were removed the attached adipose and weighted with an electronic balance (Sartorius, Germany). Mice spleen and cervical lymph node were also taken and weighted. Organ index (mg/g) was calculated as the following formula: Organ coefficients=Organweight(mg)/Ratormousetotalweight(g)

Several values for one entry are separate records, joined by “and”; a condition that tells them apart may be missing. Equal entries are not always repeated.

`CCOC(=O)c1sc(NC(=O)/C(=N/Nc2ccccc2C(=O)O)C(C)=O)nc1C` [S3, (E)-2-(2-(1-((5-(ethoxycarbonyl)-4-methylthiazol-2-yl)amino)-1,3-dioxobutan-2-ylidene) hydrazinyl) benzoic acid]: the “effect on trimerization of sRANKL” value in data set [1] is “cannot affect”.

In general, Kd refers to a measure of binding affinity in units of concentration. The molecule `CCOC(=O)c1sc(NC(=O)/C(=N/Nc2ccc(O)cc2C(=O)O)C(C)=O)nc1C` [S3-05] had a Kd in data set [2] of 6.58 µM.

Regarding `CC(=O)/C(=N\Nc1ccccc1C(=O)O)C(=O)Nc1ccccn1` [S3-15], in data set [2], the dissociation constant Kd worked out at 5.78 µM. Moreover, the “SI (sRANKL over binary-RANKL)” value in data set [2] (ratio of ITC KD) is listed as 21. In addition, the “effect on trimerization of sRANKL” value in data set [1] was “cannot affect the trimerization of sRANKL”. The OC numbers in data set [3] (H226A RANKL 0 ng/mL) is 36 and 29; in data set [3] (H226A RANKL 50 ng/mL), 173 and 156 and 170; in data set [3] (H226A RANKL 200 ng/mL), 113 and 121 and 125. Moreover, the “osteoclast formation (fig. S4b)” value in data set [3] (W194A RANKL 0 ng/mL) was 34 and 49 and 27; in data set [3] (W194A RANKL 50 ng/mL), 147 and 144 and 140; in data set [3] (W194A RANKL 200 ng/mL), 145 and 199 and 158; in data set [3] (W194A RANKL 400 ng/mL), 119 and 118 and 97. Moreover, in data set [4] (individual animals), the “organ coefficient, Heart” value is 2.652 and 2.903 and 2.602 and 2.757 and 2.485 and 2.813 and 2.658 and 2.708 and 2.583. In addition, the “organ coefficient, Kidney” value in data set [4] (individual animals) is 4.969 and 4.261 and 5.124 and 5.036 and 4.8723 and 5.304 and 5.021 and 5.76 and 4.3689. In addition, the “organ coefficient, Liver” value in data set [4] (individual animals) was 19.7988 and 22.7088 and 21.1699 and 21.9894 and 21.577 and 21.8338 and 22.6442 and 26.0414 and 24.0486. Also, the “organ coefficient, Lung” value in data set [4] (individual animals) is 3.321 and 3.475 and 4.3001 and 4.037 and 3.68 and 3.867 and 3.796 and 3.612 and 2.629. In addition, the “organ coefficient, Spleen” value in data set [4] (individual animals) is 1.37 and 1.538 and 1.519 and 1.351 and 1.314 and 1.243 and 1.454 and 1.422 and 1.469. Besides, in data set [4] (individual animals), the “organ coefficient, Thymus” value is 0.5247 and 0.4616 and 0.2402 and 1.041 and 0.7463 and 1.3304 and 0.3322 and 0.6497 and 0.411. In data set [4] (individual animals), the “organ coefficient, Uterus” value is 0.5222 and 0.6316 and 3.058 and 1.43 and 0.2827 and 0.6792 and 0.9495 and 1.366 and 2.466. Moreover, the “body weight (fig. S7d)” value was 538.3 and 392.8 and 372.2 and 391.4 and 440.6 and 486.3 and 462.8 and 403.8 and 390.8 in data set [4] (week 12, individual animals); 559.2 and 407.9 and 470.2 and 373.7 and 449.4 and 404.7 and 487.3 and 429.1 and 417.2 in data set [4] (week 16, individual animals); 573.2 and 404.5 and 481.5 and 392.5 and 442.6 and 406.7 and 502.6 and 448.2 and 400 in data set [4] (week 20, individual animals); 583.9 and 392.6 and 476.6 and 387.2 and 432.3 and 403.3 and 500.6 and 445.5 and 415.3 in data set [4] (week 24, individual animals).
